The values that follow come from article PMC11877502, “Cytotoxic Stilbenoids, Hetero- and Homodimers of Homoisoflavonoids from Prospero autumnale” (Journal of Natural Products, 2025).

Read-outs that look alike come from different tables or passages of the source.

Experiment [1] has as its system L929 nontumor mouse fibroblast cell line. The experiment is described as follows: MTS cytotoxicity assay, nontumor cell line. It is filed as cell-based. The following applies: 48 h, triplicate. The protocol: (§1) Stock solutions of extracts and compounds were prepared by dissolving in DMSO (Sigma-Aldrich, no. D2650) at the concentrations of 100 mg/mL and 100 mM for extracts and compounds, respectively. […] Untreated cells were used as a control, while plain culture medium was used as a blank. Viability was determined with MTS Assay (Abcam #ab197010) according to the manufacturer’s instructions. Absorbance at 490 nm was measured with a spectrophotometer (Epoch, BioTek Instruments). Relative viability ratios were calculated with the equation given below, and IC50 values were determined in GraphPad Prism (version 8.0). [drawing 2]

A further experiment relates to PC3. The experiment is described as follows: MTS cytotoxicity assay. The class given is cell-based. The following applies: Homo sapiens, PC-3, 48 h, triplicate. As to the method:
as §1
In general terms: Tetrazolium dyes change colour on reduction, which living cells bring about.

The subject of a further experiment is DU145. Nature of the experiment: MTS cytotoxicity assay. It is filed as cell-based. The following applies: Homo sapiens, DU-145, 48 h, triplicate. As to the method: as §1
Another experiment concerns HEP3B. The experiment is described as follows: MTS cytotoxicity assay. It is filed as cell-based. The following applies: Homo sapiens, 48 h, triplicate. The protocol: as §1
Experiment [2] relates to HCT116. The experiment is described as follows: MTS cytotoxicity assay. The class given is cell-based. The following applies: Homo sapiens, HCT-116, 48 h, triplicate. The protocol: as §1
For experiment [3], the system named is MCF7. The experiment is described as follows: MTS cytotoxicity assay. The following applies: Homo sapiens, 48 h, triplicate. The class given is cell-based. As to the method: as §1
In experiment [4] the test system is MDA-MB-231. The experiment is described as follows: MTS cytotoxicity assay. It is filed as cell-based. The following applies: Homo sapiens, 48 h, triplicate. The protocol:
as §1

The test system of experiment [5] is LoVo. Nature of the experiment: MTS cytotoxicity assay. The class given is cell-based. The following applies: Homo sapiens, 48 h, triplicate, read-out: IC50 ± SEM LoVo. As to the method:
as §1

For experiment [6], the system named is HEPG2. The experiment is described as follows: MTS cytotoxicity assay. The class given is cell-based. The following applies: Homo sapiens, 48 h, triplicate, read-out: IC50 ± SEM HEPG2. The protocol: as §1
Experiment [7] deals with HCT116. The experiment is described as follows: Annexin V/propidium iodide staining. It is filed as cell-based, human. The following applies: 48 h at IC50 concentration, flow cytometry. As to the method: (§2) Apoptosis, necrosis, and viability were analyzed by Annexin V-FITC and […] (PI) staining. For this purpose, cells were seeded at 5 × 10^5 cells per 60 mm dish and incubated overnight to allow attachment. Then, cells were treated with the selected compounds (1, 2, 4, and 10) for 48 h at respective IC50 concentrations. For flow cytometric analysis, cells were detached with Trypsin-EDTA solution (Thermo Fisher Scientific #25200056), washed with Dulbecco’s phosphate buffered saline (DPBS, Thermo Fisher Scientific #14190094) solution, and suspended in 1 mL of ice-cold Annexin V Binding Buffer (BioLegend #422201). Cells were then stained with 1 μL of Annexin V-FITC (Biovision #1001) and 1 μL PI (Thermo Fisher Scientific # P1304MP, diluted to 250 μg/mL in DPBS) by incubating cells on ice for 15 min in the dark. Cells were then immediately analyzed on a Beckman Coulter DxFLEX flow cytometry system. Each analysis was performed in triplicate, and 25 × 10^3 events were counted for each tube. Evaluations were done with CytEXPERT software.
For orientation: Flow cytometry measures light scatter and fluorescence of single cells or particles in a stream.

The subject of experiment [8] is MCF7. Nature of the experiment: Annexin V/propidium iodide staining. The following applies: 48 h at IC50 concentration, flow cytometry. It is filed as cell-based, human. As to the method:
as §2

The subject of experiment [9] is HEPG2. The experiment is described as follows: Annexin V/propidium iodide staining. The class given is cell-based, human. The following applies: 48 h at IC50 concentration, flow cytometry. As to the method:
as §2

Experiment [10] concerns HCT116. Nature of the experiment: DNA content (cell cycle) analysis. The class given is cell-based, human. The following applies: 48 h, DNA content by flow cytometry. As to the method:
(§3) To investigate cell cycle progression, cells were seeded as 5 × 10^5 cells per 60 mm dish and incubated overnight for attachment. After incubating with the selected compounds for 48 h, cells were detached with Trypsin-EDTA, washed once with DPBS, and fixed with ice-cold 70% EtOH by storing tubes at 4 °C for an hour. Then, EtOH was discarded by centrifuging cells, and the pellet was suspended in 500 μL cell cycle kit reagent (Beckman Coulter #C03551). Tubes were incubated at room temperature under the dark for 30 min. The experiment was done on triplicate, and 5 × 10^4 cells per test were acquired at a medium flow rate with the Beckman Coulter DxFLEX flow cytometry system. Analyses were performed with ModFit LT version 4.0.

In experiment [11] the test system is MCF7. The experiment is described as follows: DNA content (cell cycle) analysis. The class given is cell-based, human. The following applies: 48 h, DNA content by flow cytometry. The protocol:
as §3

The test system of experiment [12] is MDA-MB-231. Nature of the experiment: DNA content (cell cycle) analysis. It is filed as cell-based, human. The following applies: 48 h, DNA content by flow cytometry. As to the method:
as §3

Experiment [13] concerns LoVo. Nature of the experiment: DNA content (cell cycle) analysis. The class given is cell-based, human. The following applies: 48 h, DNA content by flow cytometry. The protocol: as §3
The subject of experiment [14] is HEPG2. The experiment is described as follows: DNA content (cell cycle) analysis. The following applies: 48 h, DNA content by flow cytometry. It is filed as cell-based, human. The protocol:
as §3

Experiment [15] has as its system MDA-MB-231. Nature of the experiment: Annexin V/propidium iodide staining. It is filed as cell-based, human. The following applies: 48 h at IC50 concentration, flow cytometry. The protocol:
(§4) Apoptosis, necrosis, and viability were analyzed by Annexin V-FITC and […] (PI) staining. For this purpose, cells were seeded at 5 × 10^5 cells per 60 mm dish and incubated overnight to allow attachment. […] Cells were then immediately analyzed on a Beckman Coulter DxFLEX flow cytometry system. Each analysis was performed in triplicate, and 25 × 10^3 events were counted for each tube. Evaluations were done with CytEXPERT software.

Experiment [16] has as its system LoVo. Nature of the experiment: Annexin V/propidium iodide staining. It is filed as cell-based, human. The following applies: 48 h at IC50 concentration, flow cytometry. As to the method: as §4
Experiment [17] relates to human cancer cell lines (HCT116, LoVo, DU145, PC3, HEP3B, HEPG2, MCF7, MDA-MB-231). The experiment is described as follows: MTS cytotoxicity assay, panel statements. The class given is cell-based. The following applies: 48 h, span over compounds and cell lines, read-out: IC50 toward one or more cancer cell lines. The protocol: as §1
Setting [18] is: read-out: IC50 ± SEM MDA-MB-231.

Take `COc1c(O)c(OC)c2c(c1O)OC[C@@H](Cc1ccc(O)cc1)C2=O` [Compound 7, 3R-(4′-hydroxybenzyl)-6,8-dihydroxy-5,7-dimethoxy-4-chromanone]: the IC50 (in experiment [1] (read-out: IC50 ± SEM L929); in the experiment with PC3 (read-out: IC50 ± SEM PC3); in the experiment on DU145 (read-out: IC50 ± SEM DU145); with HEP3B (read-out: IC50 ± SEM HEP3B); in the experiment on HCT116 [2] (read-out: IC50 ± SEM HCT116); in the experiment on MCF7 [3] (read-out: IC50 ± SEM MCF7)) was more than 100 µM in each case. The IC50 with MDA-MB-231 [4] (setting [18]), with LoVo [5] and in the experiment with HEPG2 [6] was more than 100 µM in each case.
For the molecule `COc1ccc(C(c2c(O)cc3c(c2O)C(=O)/C(=C/c2ccc(O)cc2)CO3)c2coc3cc(O)cc(O)c3c2=O)cc1` (centres unmarked) [Compound 9, prosperin B], the IC50 was more than 100 µM in experiment [1] (read-out: IC50 ± SEM L929); more than 100 µM in the experiment with PC3 (read-out: IC50 ± SEM PC3); more than 100 µM in the experiment with DU145 (read-out: IC50 ± SEM DU145); more than 100 µM in the experiment with HEP3B (read-out: IC50 ± SEM HEP3B); 75.8 ± 8 µM in the experiment on HCT116 [2] (read-out: IC50 ± SEM HCT116); more than 100 µM with MCF7 [3] (read-out: IC50 ± SEM MCF7). Further, the IC50 with MDA-MB-231 [4] (setting [18]), in the experiment on LoVo [5] and in the experiment with HEPG2 [6] was more than 100 µM in each case.
For `COc1ccc([C@H]2c3c(/C=C/c4ccc(O)cc4)cc(OC)c(C)c3O[C@@H]3Oc4cc(O)cc(O)c4C(=O)[C@@H]32)cc1` [Compound 10, prosperin C], in the experiment with HCT116 [7], the “apoptosis/necrosis vs control, HCT116” value was “significant increase in apoptosis”. Further, the “apoptosis/necrosis vs control, MCF7” value with MCF7 [8] is “increased apoptosis and necrosis”. Also, the “apoptosis/necrosis vs control, HEPG2” value with HEPG2 [9] was “higher late apoptosis and necrosis”. Moreover, in the experiment with HCT116 [10], the “cell cycle effect, HCT116” value was “G0/G1 phase arrest”. Also, the “cell cycle effect, MCF7” value with MCF7 [11] is recorded as “G0/G1 phase arrest”. Moreover, the “cell cycle effect, MDA-MB-231” value in the experiment with MDA-MB-231 [12] is reported as “G0/G1 phase arrest”. In addition, the “cell cycle effect, LoVo” value in the experiment with LoVo [13] is recorded as “G0/G1 phase arrest”. The “cell cycle effect, HEPG2” value with HEPG2 [14] is “slight S phase decrease”. For the same molecule, the “apoptosis/necrosis vs control, MDA-MB-231” value with MDA-MB-231 [15] was “increased apoptosis and necrosis”. Also, in the experiment with LoVo [16], the “apoptosis/necrosis vs control, LoVo” value is “apoptosis along with necrosis”. For the same molecule, the IC50 in [1] (read-out: IC50 ± SEM L929) came out at 29.7 ± 1.7 µM; in the experiment with PC3 (read-out: IC50 ± SEM PC3), 36.7 ± 2.5 µM; in the experiment on DU145 (read-out: IC50 ± SEM DU145), 40.1 ± 2.8 µM; in the experiment with HEP3B (read-out: IC50 ± SEM HEP3B), 59.9 ± 6.9 µM; in the experiment on HCT116 [2] (read-out: IC50 ± SEM HCT116), 19.3 ± 3.1 µM; in the experiment with MCF7 [3] (read-out: IC50 ± SEM MCF7), 25.2 ± 5.1 µM. Besides, the IC50 in the experiment on MDA-MB-231 [4] (setting [18]) was 25.5 ± 2.4 µM; in the experiment on LoVo [5] it was 16.7 ± 0.8 µM; in the experiment with HEPG2 [6], 24 ± 2.2 µM; in [17], 8.2 to 37.6 µM.
Take `COc1cccc2c1C(=O)c1c(O)c3c(c(O)c1C2=O)C[C@@](O)(C(=O)CO)C[C@@H]3O[C@H]1C[C@H](N)[C@H](O)[C@H](C)O1` [doxorubicin, reference compound]: the IC50 in experiment [1] (read-out: IC50 ± SEM L929) was more than 100 µM; in experiment [1] (read-out: IC50 ± SEM L929, extract/fraction), more than 100 µg/mL; with PC3 (read-out: IC50 ± SEM PC3), 0.9 ± 0.1 µM; in the experiment on PC3 (read-out: IC50 ± SEM PC3, extract/fraction), 0.88 ± 0.08 µg/mL; with DU145 (read-out: IC50 ± SEM DU145), 5.9 ± 0.4 µM; in the experiment on DU145 (read-out: IC50 ± SEM DU145, extract/fraction), 5.93 ± 0.38 µg/mL. The IC50 with HEP3B (read-out: IC50 ± SEM HEP3B) was 1.1 ± 0.1 µM; in the experiment with HEP3B (read-out: IC50 ± SEM HEP3B, extract/fraction), 1.1 ± 0.07 µg/mL; with HCT116 [2] (read-out: IC50 ± SEM HCT116) it was 0.9 ± 0.1 µM; in the experiment on HCT116 [2] (read-out: IC50 ± SEM HCT116, extract/fraction) it was 0.86 ± 0.14 µg/mL; with MCF7 [3] (read-out: IC50 ± SEM MCF7), 2.3 ± 0.3 µM; in the experiment on MCF7 [3] (read-out: IC50 ± SEM MCF7, extract/fraction), 2.32 ± 0.28 µg/mL. Besides, the IC50 with MDA-MB-231 [4] (setting [18]) came out at 2.3 ± 0.3 µM; in the experiment with MDA-MB-231 [4] (read-out: IC50 ± SEM MDA-MB-231, extract/fraction), 2.33 ± 0.33 µg/mL; in the experiment on LoVo [5] it was 2.4 ± 0.2 µM.
